Measurements reported in patent publication US20180008629A1, “Compositions and Methods for Treating NLRP3 Inflammasome-Related Diseases and Disorders” (priority 2015, published 2018).

Tests used:
BMDMs [1] = test: BMDM viability and proliferation (MTT assay); format: cell-based, mouse
Procedure: (§1) The BMDM proliferation in response to BHB treatment was analyzed using the MTT assay according to manufacturer's instructions. The BMDM were incubated with Asante Potassium Green 1 (APG-1) which is a fluorescent indicator with a Kd for measuring cytosolic K+ concentration. It has non-ratiometric large fluorescence dynamic range allows sensing of even small changes in K+ concentration. Optimal excitation was recorded at 517 nm. In addition, the K+ was measured in BMDMs using an ElementXR or Agilent 7700 Inductively Coupled Mass Spectrometry (ICP-MS) using previously described methods (Muñoz-Planillo et al., 2013, Immunity 38:1142-1153). For error analysis, samples and standard solutions were run in duplicate.

BMDMs [2] = test: Intracellular K+ measurement in BMDMs (APG-1 dye, ICP-MS); format: cell-based, mouse; conditions: LPS primed BMDMs
Procedure: as §1

human neutrophils = test: IL-1β secretion from human peripheral blood neutrophils (ELISA); format: cell-based; conditions: peripheral blood neutrophils from adult (30-40 years) and old (65-75 years)
Procedure: BHB was also observed to inhibit IL1B production from human neutrophils irrespective of age. Peripheral blood neutrophils from adult (30-40 years) and old (65-75 years) were enriched and stimulated as indicated (FIG. 20). IL-1β secretion was measured in culture supernatants by ELISA. Data are expressed as mean±S.E.M (*p<0.01).

human monocytes = test: Cytokine secretion from LPS stimulated human monocytes (ELISA); format: cell-based; conditions: LPS (1 μg/mL) 4 h, increasing concentrations of BHB
Procedure: The cryopreserved peripheral blood monocuclear cells were used to sort CD14+ monocytes using isolation kit from Miltenyi (130-091-153). A total of 6 healthy subjects, ([…], […], person, person, […] and […]) were used for monocyte isolations. Monocytes were seeded in 6 well plates at concentration of 3 million/mL of RPMI1640 media with 10% FCS and antibiotic/antimycotic mixture and stimulated with LPS for 4 h. The supernatants were used to measure IL-1β, IL-18 and TNF using ELISA. Human peripheral blood was collected by the Health Apheresis Unit and the Clinical Core Laboratory, the National Institute on Aging-Intramural Research Program, under Human Subject Protocol #2003054 and Tissue Procurement Protocol #2003-071.

caspase-11 = test: Non-canonical inflammasome pathway, caspase-11 immunoblot in LPS treated BMDMs; format: cell-based, mouse; conditions: BMDMs treated with LPS 4 h
NLRP3^L351P = NLRP3^L351P (Mus musculus, UniProt Q8R4B8, L351P); format: cell-based; design: endogenous in cells; Nlrp3 L351P Cre+ mice after tamoxifen in vivo (A14); conditions: constitutively active NLRP3 inflammasome, LPS
NLRP3^L351P, sequence (Q8R4B8 whole entry L351P): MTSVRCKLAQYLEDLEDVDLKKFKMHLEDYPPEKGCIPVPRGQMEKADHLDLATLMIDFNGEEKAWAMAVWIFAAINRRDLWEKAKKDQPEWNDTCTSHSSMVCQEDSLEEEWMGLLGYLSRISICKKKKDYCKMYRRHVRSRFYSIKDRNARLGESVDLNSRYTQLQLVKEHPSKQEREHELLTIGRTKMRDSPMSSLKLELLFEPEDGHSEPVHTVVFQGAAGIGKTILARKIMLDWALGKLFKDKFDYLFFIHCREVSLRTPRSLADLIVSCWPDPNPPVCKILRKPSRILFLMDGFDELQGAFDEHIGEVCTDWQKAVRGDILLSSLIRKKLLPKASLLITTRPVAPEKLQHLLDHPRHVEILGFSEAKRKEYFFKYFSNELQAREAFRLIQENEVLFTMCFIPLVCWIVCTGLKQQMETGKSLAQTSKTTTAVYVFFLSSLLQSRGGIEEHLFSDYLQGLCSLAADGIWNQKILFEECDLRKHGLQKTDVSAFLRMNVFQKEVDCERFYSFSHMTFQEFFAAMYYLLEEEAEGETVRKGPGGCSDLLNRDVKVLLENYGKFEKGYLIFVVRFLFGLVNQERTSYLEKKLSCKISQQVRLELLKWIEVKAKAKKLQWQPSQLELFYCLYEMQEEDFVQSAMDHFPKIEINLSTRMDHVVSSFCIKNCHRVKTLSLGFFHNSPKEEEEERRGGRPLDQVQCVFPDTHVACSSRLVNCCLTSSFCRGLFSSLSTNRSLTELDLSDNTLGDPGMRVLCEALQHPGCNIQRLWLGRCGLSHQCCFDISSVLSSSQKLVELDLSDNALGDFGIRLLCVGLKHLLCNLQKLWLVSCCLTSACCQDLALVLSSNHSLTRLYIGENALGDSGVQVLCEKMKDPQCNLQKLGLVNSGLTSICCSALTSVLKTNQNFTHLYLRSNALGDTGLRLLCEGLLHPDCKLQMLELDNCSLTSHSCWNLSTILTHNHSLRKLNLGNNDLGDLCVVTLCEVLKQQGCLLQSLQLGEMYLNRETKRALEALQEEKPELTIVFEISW

NLRP3 inflammasome = NLRP3 inflammasome (Mus musculus, UniProt Q8R4B8); test: IL-1β secretion from mouse neutrophils after NLRP3 activation (western blot); format: cell-based; design: endogenous in cells; host or cells: mouse bone marrow neutrophils (A15)
NLRP3 inflammasome, sequence (Q8R4B8 whole entry): as the sequence (Q8R4B8 whole entry L351P) above, with P351L counted along it
Procedure: Neutrophils from young (3 month) and aged (24 months) mice were stimulated with LPS, and the NLRP3 inflammasome was activated by treatment with ATP and C6 Ceramide. BHB was provided at the same time of ATP and ceramide treatment.
Adult and old neutrophils were analyzed for ketogenic and ketolytic enzyme expression. Gene expression was measured by RT-PCR (FIG. 14A). Expression was normalized to Gapdh expression and was represented as expression relative to adult gene expression. SCOT, HMGCL, and β-Actin protein expression were assessed in unstimulated adult and old neutrophils by Western blot (FIG. 14B). Dose response to BHB was measured by assaying IL-1β secretion in supernatants from adult neutrophils (FIG. 14C). Western blots were generated of IL-1β in supernatants from adult and old neutrophils stimulated with LPS+ATP or LPS+ceramide (FIG. 14D). In FIG. 14A, each dot represents a pooled sample of n=2 mice. In FIGS. 14B-14D, each blot is representative of at least two independent experiments. Each sample analyzed by Western blot is pooled from n=4-6 mice per experiment.
Adult neutrophils were stimulated with LPS+ATP+BHB to test the mechanism by which BHB blocks IL-1β secretion. LPS-primed neutrophils were stimulated with ATP in the presence of BHB or niacin (FIG. 15A). Supernatants were analyzed for IL-1β secretion by Western blot. Wildtype of mCAT neutrophils were stimulated with LPS+ATP+BHB (FIG. 15B). Supernatants were analyzed for IL-1β secretion by Western blot. Catalase and β-Actin expression were measured by Western blot in neutrophil cell lysates. LPS-primed neutrophils were stimulated with ATP+BHB in the presence of 3-MA or AOA as indicated (FIG. 15C). Supernatants were analyzed for IL-1β secretion by Western blot. The enantiomer S-BHB was tested in a dose response for the ability to inhibit inflammasome activation (FIG. 15D). Supernatants were analyzed for IL-1β secretion by Western blot. FCAS neutrophils were incubated with 4-OHT followed by LPS priming. […] Supernatants were analyzed for IL-1β secretion by Western blot. […]

CC(O)CC(=O)O (stereo not drawn) [BHB, β-hydroxybutyrate]
cellular proliferation (BMDMs [1]; 10 mM concentration): significantly increased | viability of BMDMs (BMDMs [1]; increasing concentration of BHB): did not impair | decline in intracellular K+ in response to MSU (BMDMs [2]; BHB 1 h): prevented the decline | decline in intracellular K+ in response to ATP (BMDMs [2]; BHB (10 mM)): prevented the decline | decline in intracellular K+ in response to ceramides (BMDMs [2]; C6 ceramide and BHB 1 h): prevented the decline | IL1B production from human neutrophils (human neutrophils): inhibit | IL-1β secretion (human monocytes): dose dependently inhibited | IL-18 secretion (human monocytes): dose dependently inhibited | TNFα production (human monocytes): without significantly affecting | caspase-11 activation (caspase-11): neither butyrate nor BHB blocks | ASC oligomerization in macrophages of FCAS mice (NLRP3^L351P): directly prevented | NLRP3 inflammasome activation in neutrophils (NLRP3 inflammasome; adult and old mouse neutrophils, LPS+ATP or LPS+ceramide, IL-1β in supernatants): inhibit | mechanism of inhibitory effects in neutrophils (NLRP3 inflammasome; adult neutrophils stimulated with LPS+ATP+BHB): physically blocking inflammasome assembly | IL-1β production after NLRP3 activation in neutrophils (NLRP3 inflammasome; neutrophils from young (3 month) and aged (24 month) mice, LPS, ATP and C6 Ceramide, 10 mM BHB): blocks
